For 25 molecules, EC50 and CC50 results are on record in patent US12264159B2, “Functionalized heterocycles as antiviral agents” (Enanta Pharmaceuticals, Inc., priority 2018, dated 2025).

In general, EC50 refers to the concentration giving half of the maximal effect. Read a high EC50 as lower potency in that assay. Broadly, the CC50 is the concentration at which the toxic effect on the cells reaches its halfway point. The low end stands for greater toxicity to the cells, the high end for lower toxicity to the cells.

In one data set the test system is HBV in 2.2.15 cells. The experiment in a line: 2.2.15 cells: viral product in cell lysates quantified via quantitative real time PCR. The class given is cell-based, hepatitis B virus (HBV). Particulars: Hepatitis B virus, 120 h, day 5 post treatment, 50% reduction of viral product vs no drug controls, readout (qPCR, HBsAg or HBeAg) not specified for the column. A digest of the protocol: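 2.2.15 cells (35,000/well, DMEM/F12, 10% FBS, G418) were treated with 5-fold serial compound dilutions, 0.5% DMSO final. After 5 days, lysates were quantified by qPCR, or supernatant HBsAg/HBeAg by ELISA; EC50 is the concentration giving 50% reduction versus no-drug controls.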

Data set [1] is described as follows: Compound induced cellular toxicity in HepG2 cells, ATPlite 1Step. The class given is cell-based. Conditions: human, three days exposure, 50% reduction of total ATP vs no drug controls. Here is the method: At day 3, post seeding cells are treated with ATPlite 1Step according to the manufacturer's instructions.
Background: ATP-based viability assays read luminescence as a measure of living cells.

A value given as a limit tells only on which side of the number the result lay.

For the molecule `CC(C)[C@@H]1Cn2nc(C3CC3)c(-c3ccsc3)c2-c2cc(=O)c(C(=O)O)cn21` [Example 128, (R)-2-cyclopropyl-6-isopropyl-10-oxo-1-(thiophen-3-yl)-5,6-dihydro-10H-pyrazolo[1,5-a]pyrido[2,1-c]pyrazine-9-carboxylic acid], in the data set with HBV in 2.2.15 cells, the EC50 was less than 0.1 µM. The same molecule displayed a CC50 at 3 days in data set [1] greater than 25 µM.
The like results for `CC(C)[C@@H]1Cn2nc(C3CC3)c(-c3ccccc3F)c2-c2cc(=O)c(C(=O)O)cn21` [Example 129, (R)-2-cyclopropyl-1-(2-fluorophenyl)-6-isopropyl-10-oxo-5,6-dihydro-10H-pyrazolo[1,5-a]pyrido[2,1-c]pyrazine-9-carboxylic acid] were, in that order, less than 0.1 µM and greater than 25 µM.
As to `CC(C)[C@@H]1Cn2nc(C3CC3)c(-c3ccccc3)c2-c2cc(=O)c(C(=O)O)cn21` [Example 130, (R)-2-cyclopropyl-6-isopropyl-10-oxo-1-phenyl-5,6-dihydro-10H-pyrazolo[1,5-a]pyrido[2,1-c]pyrazine-9-carboxylic acid], in the data set on HBV in 2.2.15 cells, the 50% effective concentration (EC50) is less than 0.1 µM. In data set [1], this molecule returned a CC50 at 3 days greater than 25 µM.
Taken in the same sequence, the figures for `CC(C)[C@@H]1Cn2nc(C3CC3)c(-c3cccs3)c2-c2cc(=O)c(C(=O)O)cn21` [Example 131, (R)-2-cyclopropyl-6-isopropyl-10-oxo-1-(thiophen-2-yl)-5,6-dihydro-10H-pyrazolo[1,5-a]pyrido[2,1-c]pyrazine-9-carboxylic acid] were less than 0.1 µM and greater than 25 µM.
`CC(C)[C@@H]1Cn2nc(C3CC3)c(-c3ccoc3)c2-c2cc(=O)c(C(=O)O)cn21` [Example 132, (R)-2-cyclopropyl-1-(furan-3-yl)-6-isopropyl-10-oxo-5,6-dihydro-10H-pyrazolo[1,5-a]pyrido[2,1-c]pyrazine-9-carboxylic acid] gave a concentration for a half-maximal effect (EC50) in the data set on HBV in 2.2.15 cells of less than 0.1 µM. Besides, the CC50 at 3 days in data set [1] was greater than 25 µM.
Take `CC(C)[C@@H]1Cn2nc(C3CC3)c(-c3ccc(F)cc3)c2-c2cc(=O)c(C(=O)O)cn21` [Example 133, (R)-2-cyclopropyl-1-(4-fluorophenyl)-6-isopropyl-10-oxo-5,6-dihydro-10H-pyrazolo[1,5-a]pyrido[2,1-c]pyrazine-9-carboxylic acid]: the half-maximal effective concentration (EC50) with HBV in 2.2.15 cells was less than 0.1 µM. Besides, the CC50 at 3 days in data set [1] is greater than 25 µM.
Taken in the same sequence, the figures for `CC(C)[C@@H]1Cn2nc(C3CC3)c(-c3cccc(F)c3)c2-c2cc(=O)c(C(=O)O)cn21` [Example 134, (R)-2-cyclopropyl-1-(3-fluorophenyl)-6-isopropyl-10-oxo-5,6-dihydro-10H-pyrazolo[1,5-a]pyrido[2,1-c]pyrazine-9-carboxylic acid] were less than 0.1 µM and greater than 25 µM.
In the data set on HBV in 2.2.15 cells, `CC(C)[C@@H]1Cn2nc(C3CC3)c(-c3ccco3)c2-c2cc(=O)c(C(=O)O)cn21` [Example 136, (R)-2-cyclopropyl-1-(furan-2-yl)-6-isopropyl-10-oxo-5,6-dihydro-10H-pyrazolo[1,5-a]pyrido[2,1-c]pyrazine-9-carboxylic acid] yielded an EC50 of less than 0.1 µM. The molecule further displayed a CC50 at 3 days in data set [1] greater than 25 µM.
In the case of `CC(C)[C@@H]1Cn2nc(C3CC3)c(-c3cccnc3)c2-c2cc(=O)c(C(=O)O)cn21` [Example 140, (R)-2-cyclopropyl-6-isopropyl-10-oxo-1-(pyridin-3-yl)-5,6-dihydro-10H-pyrazolo[1,5-a]pyrido[2,1-c]pyrazine-9-carboxylic acid], the EC50 in the data set with HBV in 2.2.15 cells is less than 0.1 µM. This molecule came in with a CC50 at 3 days in data set [1] greater than 25 µM.
The like results for `CC(C)[C@@H]1Cn2nc(C3CC3)c(-c3cccc(O)c3)c2-c2cc(=O)c(C(=O)O)cn21` [Example 142, (R)-2-cyclopropyl-1-(3-hydroxyphenyl)-6-isopropyl-10-oxo-5,6-dihydro-10H-pyrazolo[1,5-a]pyrido[2,1-c]pyrazine-9-carboxylic acid] were, in that order, less than 0.1 µM and greater than 25 µM.
Turning to `CC(C)[C@@H]1Cn2nc(C3CC3)c(-c3ccc(O)cc3)c2-c2cc(=O)c(C(=O)O)cn21` [Example 143, (R)-2-cyclopropyl-1-(4-hydroxyphenyl)-6-isopropyl-10-oxo-5,6-dihydro-10H-pyrazolo[1,5-a]pyrido[2,1-c]pyrazine-9-carboxylic acid], the EC50 in the data set with HBV in 2.2.15 cells is less than 0.1 µM. Further, the half-maximal cytotoxic concentration (CC50) at 3 days in data set [1] is greater than 25 µM.
Consider `CC(C)(C)[C@@H]1Cn2nc(C3CC3)c(-c3ccc(F)cc3)c2-c2cc(=O)c(C(=O)O)cn21` [Example 146, (R)-6-(tert-butyl)-2-cyclopropyl-1-(4-fluorophenyl)-10-oxo-5,6-dihydro-10H-pyrazolo[1,5-a]pyrido[2,1-c]pyrazine-9-carboxylic acid], for which the EC50 in the data set with HBV in 2.2.15 cells is less than 0.1 µM. The molecule further returned a CC50 at 3 days in data set [1] greater than 25 µM.
Taken in the same sequence, the figures for `CC(C)(C)[C@@H]1Cn2nc(C3CC3)c(-c3cccc(F)c3)c2-c2cc(=O)c(C(=O)O)cn21` [Example 147, (R)-6-(tert-butyl)-2-cyclopropyl-1-(3-fluorophenyl)-10-oxo-5,6-dihydro-10H-pyrazolo[1,5-a]pyrido[2,1-c]pyrazine-9-carboxylic acid] were less than 0.1 µM and greater than 25 µM.
In the data set with HBV in 2.2.15 cells, `CC(C)(C)[C@@H]1Cn2nc(C3CC3)c(-c3ccccc3F)c2-c2cc(=O)c(C(=O)O)cn21` [Example 148, (R)-6-(tert-butyl)-2-cyclopropyl-1-(2-fluorophenyl)-10-oxo-5,6-dihydro-10H-pyrazolo[1,5-a]pyrido[2,1-c]pyrazine-9-carboxylic acid] yielded an EC50 of less than 0.1 µM. This molecule displayed a 50% cytotoxic concentration (CC50) at 3 days in data set [1] greater than 25 µM.
Taken in the same sequence, the figures for `CC(C)(C)[C@@H]1Cn2nc(C3CC3)c(-c3ccccc3)c2-c2cc(=O)c(C(=O)O)cn21` [Example 149, (R)-6-(tert-butyl)-2-cyclopropyl-10-oxo-1-phenyl-5,6-dihydro-10H-pyrazolo[1,5-a]pyrido[2,1-c]pyrazine-9-carboxylic acid] were less than 0.1 µM and greater than 25 µM.
Taken in the same sequence, the figures for `CC(C)(C)[C@@H]1Cn2nc(C3CC3)c(-c3cccc4c3OC(F)(F)O4)c2-c2cc(=O)c(C(=O)O)cn21` [Example 150, (R)-6-(tert-butyl)-2-cyclopropyl-1-(2,2-difluorobenzo[d][1,3]dioxol-4-yl)-10-oxo-5,6-dihydro-10H-pyrazolo[1,5-a]pyrido[2,1-c]pyrazine-9-carboxylic acid] were less than 0.1 µM and greater than 25 µM.
The like results for `CC(C)(C)[C@@H]1Cn2nc(C3CC3)c(-c3ccc(F)c(F)c3)c2-c2cc(=O)c(C(=O)O)cn21` [Example 151, (R)-6-(tert-butyl)-2-cyclopropyl-1-(3,4-difluorophenyl)-10-oxo-5,6-dihydro-10H-pyrazolo[1,5-a]pyrido[2,1-c]pyrazine-9-carboxylic acid] were, in that order, less than 0.1 µM and greater than 25 µM.
For `CC(C)(C)[C@@H]1Cn2nc(C3CC3)c(-c3ccoc3)c2-c2cc(=O)c(C(=O)O)cn21` [Example 152, (R)-6-(tert-butyl)-2-cyclopropyl-1-(furan-3-yl)-10-oxo-5,6-dihydro-10H-pyrazolo[1,5-a]pyrido[2,1-c]pyrazine-9-carboxylic acid], in the data set on HBV in 2.2.15 cells, the EC50 is less than 0.1 µM. The molecule further had a CC50 at 3 days in data set [1] greater than 25 µM.
In the data set on HBV in 2.2.15 cells, `Cc1cccc(-c2c(C3CC3)nn3c2-c2cc(=O)c(C(=O)O)cn2[C@H](C(C)(C)C)C3)c1` [Example 153, (R)-6-(tert-butyl)-2-cyclopropyl-10-oxo-1-(m-tolyl)-5,6-dihydro-10H-pyrazolo[1,5-a]pyrido[2,1-c]pyrazine-9-carboxylic acid] showed an EC50 of less than 0.1 µM. The CC50 at 3 days in data set [1] was in the range of 10 to 25 µM.
Taken in the same sequence, the figures for `Cc1ccc(-c2c(C3CC3)nn3c2-c2cc(=O)c(C(=O)O)cn2[C@H](C(C)(C)C)C3)cc1` [Example 154, (R)-6-(tert-butyl)-2-cyclopropyl-10-oxo-1-(p-tolyl)-5,6-dihydro-10H-pyrazolo[1,5-a]pyrido[2,1-c]pyrazine-9-carboxylic acid] were less than 0.1 µM and greater than 25 µM.
For `CC(C)(C)[C@@H]1Cn2nc(C3CC3)c(-c3cc(F)ccc3F)c2-c2cc(=O)c(C(=O)O)cn21` [Example 155, (R)-6-(tert-butyl)-2-cyclopropyl-1-(2,5-difluorophenyl)-10-oxo-5,6-dihydro-10H-pyrazolo[1,5-a]pyrido[2,1-c]pyrazine-9-carboxylic acid], in the data set on HBV in 2.2.15 cells, the EC50 was less than 0.1 µM. This molecule had a CC50 at 3 days in data set [1] greater than 25 µM.
Taken in the same sequence, the figures for `CC(C)(C)[C@@H]1Cn2nc(C3CC3)c(-c3cccs3)c2-c2cc(=O)c(C(=O)O)cn21` [Example 156, (R)-6-(tert-butyl)-2-cyclopropyl-10-oxo-1-(thiophen-2-yl)-5,6-dihydro-10H-pyrazolo[1,5-a]pyrido[2,1-c]pyrazine-9-carboxylic acid] were less than 0.1 µM and greater than 25 µM.
In turn, `COc1cccc(-c2c(C3CC3)nn3c2-c2cc(=O)c(C(=O)O)cn2[C@H](C(C)(C)C)C3)c1` [Example 157, (R)-6-(tert-butyl)-2-cyclopropyl-1-(3-methoxyphenyl)-10-oxo-5,6-dihydro-10H-pyrazolo[1,5-a]pyrido[2,1-c]pyrazine-9-carboxylic acid] displayed an EC50 in the data set with HBV in 2.2.15 cells of less than 0.1 µM. Also, the CC50 at 3 days in data set [1] was greater than 25 µM.
`COc1ccc(-c2c(C3CC3)nn3c2-c2cc(=O)c(C(=O)O)cn2[C@H](C(C)(C)C)C3)cc1` [Example 158, (R)-6-(tert-butyl)-2-cyclopropyl-1-(4-methoxyphenyl)-10-oxo-5,6-dihydro-10H-pyrazolo[1,5-a]pyrido[2,1-c]pyrazine-9-carboxylic acid]: the EC50 in the data set on HBV in 2.2.15 cells is less than 0.1 µM. In data set [1], the CC50 at 3 days was greater than 25 µM.
The like results for `CC(C)(C)[C@@H]1Cn2nc(C3CC3)c(-c3ccco3)c2-c2cc(=O)c(C(=O)O)cn21` [Example 159, (R)-6-(tert-butyl)-2-cyclopropyl-1-(furan-2-yl)-10-oxo-5,6-dihydro-10H-pyrazolo[1,5-a]pyrido[2,1-c]pyrazine-9-carboxylic acid] were, in that order, less than 0.1 µM and greater than 25 µM.
